# In patent US20100267561A1, “HERBICIDAL PYRIDAZINONE DERIVATIVES” (priority 2007, published 2010):
# Where two headings read alike, the source gives them in different places.
# Experiments:
# Format in all cases: in vivo
# [1] = tested on: giant foxtail (Setaria faberi); test: Test A pre-/postemergence plant response; conditions: for pest or weed control at 31 g/ha / pest or weed control at 125 g/ha: Setaria faberi, 240 h, read-out: Plant response rating, Foxtail, Giant
# Summary of the method: (§1)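 Ratings are visual, 0–100, where 100 means complete control and 0 no effect, taken roughly 10 days after treatment by comparison with untreated controls. Formulation: non-phytotoxic solvent mixture with surfactant.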
# [2] = tested on: large crabgrass (Digitaria sanguinalis); test: Test A pre-/postemergence plant response; conditions: for pest or weed control at 31 g/ha / pest or weed control at 125 g/ha: Digitaria sanguinalis, 240 h, read-out: Plant response rating, Crabgrass, Large
# Summary of the method: as §1
# [3] = tested on: barnyardgrass (Echinochloa crus-galli); test: Test A pre-/postemergence plant response; conditions: for pest or weed control at 31 g/ha / pest or weed control at 125 g/ha: Echinochloa crus-galli, 240 h, read-out: Plant response rating, Barnyardgrass
# Summary of the method: as §1
# [4] = tested on: wheat (Triticum aestivum); test: Test A pre-/postemergence plant response; conditions: for plant injury at 31 g/ha / plant injury at 125 g/ha: Triticum aestivum, 240 h, read-out: Plant response rating, Wheat
# Summary of the method: as §1
# [5] = tested on: pigweed (Amaranthus retroflexus); test: Test A pre-/postemergence plant response; conditions: for pest or weed control at 31 g/ha / pest or weed control at 125 g/ha: Amaranthus retroflexus, 240 h, read-out: Plant response rating, Pigweed
# Summary of the method: as §1
# [6] = tested on: windgrass (Apera spica-venti); test: Test B postemergence plant response; conditions: for Windgrass plant response rating: postemergence, 0-100 scale; for Plant response rating, Windgrass: Postemergence
# Description: (§2) At the same time, plants selected from these crop and weed species and also winter barley (Hordeum vulgare), canarygrass (Phalaris minor), chickweed (Stellaria media) and windgrass (Apera spica-venti) were treated with postemergence applications of some of the test chemicals formulated in the same manner. Plants ranged in height from 2 to 18 cm (1- to 4-leaf stage) for postemergence treatments.
# (§3) Plant species in the flooded paddy test consisted of rice (Oryza sativa), umbrella sedge (Cyperus difformis), ducksalad (Heteranthera limosa) and barnyardgrass (Echinochloa crus-galli) grown to the 2-leaf stage for testing. At time of treatment, test pots were flooded to 3 cm above the soil surface, treated by application of test compounds directly to the paddy water, and then maintained at that water depth for the duration of the test. Treated plants and controls were maintained in a greenhouse for 13 to 15 days, after which time all species were compared to controls and visually evaluated. Plant response ratings, summarized in Table B, are based on a scale of 0 to 100 where 0 is no effect and 100 is complete control. A dash (-) response means no test result.
# [7] = tested on: canarygrass (Phalaris minor); test: Test B postemergence plant response; conditions: for Canarygrass plant response rating: 8 g ai/ha, postemergence, 0-100 scale; for Plant response rating, Canarygrass: Postemergence
# Description: as §2, §3
# [8] = tested on: chickweed (Stellaria media); test: Test B postemergence plant response; conditions: for Chickweed plant response rating: 8 g ai/ha, postemergence, 0-100 scale; for Plant response rating, Chickweed: Postemergence
# Description: as §2, §3
# [9] = tested on: winter barley (Hordeum vulgare); test: Test B postemergence plant response; conditions: for Barley plant response rating: 8 g ai/ha, postemergence, 0-100 scale; for Plant response rating, Barley: Postemergence, scale 0 to 100, 0 no effect, 100 complete control
# Description: as §2, §3
# [10] = Postemergence, 31 g ai/ha, 0 to 100 scale, 0 no effect, 100 complete control
# [11] = Postemergence, 125 g ai/ha, 0 to 100 scale, 0 no effect, 100 complete control
# [12] = Preemergence, 31 g ai/ha, 0 to 100 scale, 0 is no effect, 100 is complete control
# [13] = Preemergence, 125 g ai/ha, 0 to 100 scale (0 no effect, 100 complete control)
# [14] = 62 g ai/ha, scale 0 to 100, 0 no effect, 100 complete control
# [15] = post-emergence, Postemergence, 31 g ai/ha, 0 to 100 scale (0 no effect, 100 complete control)
# [16] = post-emergence, Postemergence, 125 g ai/ha, 0 to 100 scale, 0 no effect, 100 complete control
# [17] = pre-emergence, Preemergence, 31 g ai/ha, 0 to 100 scale, 0 is no effect, 100 is complete control
# [18] = pre-emergence, Preemergence, 125 g ai/ha, 0 to 100 scale (0 no effect, 100 complete control)
smiles,measurement,setting,value
CCc1cc(-c2ccc(Br)cc2)nn1-c1c(O)c(C)nn(C)c1=O [Compound 74],"Plant response rating, Foxtail, Giant",[1]; [10],70
same,"Plant response rating, Foxtail, Giant",[1]; [11],100
same,"Plant response rating, Foxtail, Giant",[1]; [12],90
same,"Plant response rating, Foxtail, Giant",[1]; [13],100
same,"Plant response rating, Crabgrass, Large",[2]; [10],60
same,"Plant response rating, Crabgrass, Large",[2]; [11],100
same,"Plant response rating, Crabgrass, Large",[2]; [12],50
same,"Plant response rating, Crabgrass, Large",[2]; [13],90
same,"Plant response rating, Barnyardgrass",[3]; [10],100
same,"Plant response rating, Barnyardgrass",[3]; [11],100
same,"Plant response rating, Barnyardgrass",[3]; [12],100
same,"Plant response rating, Barnyardgrass",[3]; [13],100
same,"Plant response rating, Wheat",[4]; [10],70
same,"Plant response rating, Wheat",[4]; [11],80
same,"Plant response rating, Wheat",[4]; [12],20
same,"Plant response rating, Wheat",[4]; [13],60
same,"Plant response rating, Pigweed",[5]; [10],0
same,"Plant response rating, Pigweed",[5]; [11],0
same,"Plant response rating, Pigweed",[5]; [12],0
same,"Plant response rating, Pigweed",[5]; [13],0
same,Windgrass plant response rating,[6]; 8 g ai/ha,85
same,Windgrass plant response rating,[6]; 16 g ai/ha,90
same,"Plant response rating, Windgrass","[6]; 31 g ai/ha, scale 0 to 100",100
same,"Plant response rating, Windgrass",[6]; [14],100
same,Canarygrass plant response rating,[7],80
same,"Plant response rating, Canarygrass","[7]; 16 g ai/ha, scale 0 to 100",90
same,"Plant response rating, Canarygrass","[7]; 31 g ai/ha, scale 0 to 100",100
same,"Plant response rating, Canarygrass",[7]; [14],100
same,Chickweed plant response rating,[8],0
same,"Plant response rating, Chickweed","[8]; 16 g ai/ha, scale 0 to 100",0
same,"Plant response rating, Chickweed","[8]; 31 g ai/ha, scale 0 to 100",0
same,"Plant response rating, Chickweed",[8]; [14],0
same,Barley plant response rating,[9],20
same,"Plant response rating, Barley",[9]; 16 g ai/ha,40
same,"Plant response rating, Barley",[9]; 31 g ai/ha,95
same,"Plant response rating, Barley",[9]; 62 g ai/ha,95
"Cc1nn(C)c(=O)c(-c2nc(-c3ccc(Cl)cc3)sc2C)c1O [Compound 79, 4-[2-(4-chlorophenyl)-5-methyl-4-thiazolyl]-5-hydroxy-2,6-dimethyl-3(2H)-pyridazinone]",pest or weed control at 31 g/ha,[1]; [15],10%
same,pest or weed control at 125 g/ha,[1]; [16],70%
same,pest or weed control at 31 g/ha,[1]; [17],10%
same,pest or weed control at 125 g/ha,[1]; [18],100%
same,pest or weed control at 31 g/ha,[2]; [15],30%
same,pest or weed control at 125 g/ha,[2]; [16],50%
same,pest or weed control at 31 g/ha,[2]; [17],10%
same,pest or weed control at 125 g/ha,[2]; [18],100%
same,pest or weed control at 31 g/ha,[3]; [15],0%
same,pest or weed control at 125 g/ha,[3]; [16],50%
same,pest or weed control at 31 g/ha,[3]; [17],0%
same,pest or weed control at 125 g/ha,[3]; [18],100%
same,plant injury at 31 g/ha,[4]; [15],0%
same,plant injury at 125 g/ha,[4]; [16],50%
same,plant injury at 31 g/ha,[4]; [17],0%
same,plant injury at 125 g/ha,[4]; [18],60%
same,pest or weed control at 31 g/ha,[5]; [15],0%
same,pest or weed control at 125 g/ha,[5]; [16],0%
same,pest or weed control at 31 g/ha,[5]; [17],0%
same,pest or weed control at 125 g/ha,[5]; [18],0%
same,Windgrass plant response rating,[6]; 8 g ai/ha,0
same,Windgrass plant response rating,[6]; 16 g ai/ha,50
same,"Plant response rating, Windgrass","[6]; 31 g ai/ha, scale 0 to 100",50
same,"Plant response rating, Windgrass",[6]; [14],70
same,Canarygrass plant response rating,[7],10
same,"Plant response rating, Canarygrass","[7]; 16 g ai/ha, scale 0 to 100",55
same,"Plant response rating, Canarygrass","[7]; 31 g ai/ha, scale 0 to 100",85
same,"Plant response rating, Canarygrass",[7]; [14],95
same,Chickweed plant response rating,[8],0
same,"Plant response rating, Chickweed","[8]; 16 g ai/ha, scale 0 to 100",0
same,"Plant response rating, Chickweed","[8]; 31 g ai/ha, scale 0 to 100",0
same,"Plant response rating, Chickweed",[8]; [14],0
same,Barley plant response rating,[9],0
same,"Plant response rating, Barley",[9]; 16 g ai/ha,10
same,"Plant response rating, Barley",[9]; 31 g ai/ha,30
same,"Plant response rating, Barley",[9]; 62 g ai/ha,40
